The results in this text go back to US20080207738A1, “DRUG COMBINATIONS TO TREAT DRUG RESISTANT TUMORS” (priority 2007, published 2008).

For data set [1], the system named is L5178/MDR1 mouse T-cell lymphoma cells. The data set can be described thus: cells. The following applies: mouse, 72 h. The source says:
(§1) For the determination of relative number of viable cells before and after treatments, in most cases the MTT assay was used. This calorimetric assay is based on the ability of living cells, but not dead cells, to reduce 3-(4, 5-dimethyl thiazol-2-yl)-2, 5-diphenyltetrazolium bromide [Carmichael, J, De Graff, W. G., Gazdar, A. F., Minna, J. D. and Mitchell, J. B. (1987), “Evaluation oftetrazolium-based semiautomated calorimetric assay: Assessment of chemosensitivity testing,” Cancer Res., 47, 936-942]. For this assay, cells were plated in 96-well plates (10,000-30,000 cells in case of cultured cells, 100,000 cells in case of healthy lymphocytes, and 200,000 cells in case of chronic lymphocytic leukemia or non-Hodgkin lymphocytes) in the respective incubation media. After a 24-h resting period, the cells were treated with the test agents and then incubated (in CO2 incubator under humidified atmosphere) for 72 hours (final incubation volume, 150 μl). The MTT assay was performed both with the untreated and treated cell cultures at the conclusion of the incubation. Often, the MTT assay also was performed at the start of treatments to allow assessment of proliferation rates in the control and treated cell cultures. All data presented are the average of 4 incubations (in 4 separate wells) with the same cell population.
L5178/MDR1 cells were seeded at 10,000 cells per well in 96-well plates and then incubated for 72 hours in the absence or presence of 5 μg/ml of CCcompound104 and various concentrations of CCcompound26 as indicated in Table 6.
(§2) Epirubicin, like doxorubicin and other antracyclins, is an MDR1 substrate. The goal of this experiment was to use epirubicin as a model compound to determine if in L5178/MDR1 cells CCcompound104 also can enhance the effects of MDR1 substrate anti-cancer agents other than CCcompound26 and other thioxanthene or thioxanthone CC compounds. The parent and MDR1 expressing cells were seeded at 30,000 cells per well in 96-well microplates and after a 24-h resting period treated with increasing concentrations of epirubicin n in the absence or presence of 5 μg/ml of CCcompound104 for 72 hours.

In data set [2] the test system is parent L5178 mouse T-cell lymphoma cells. The data set can be described thus: MTT cell viability, parent L5178 cells. The following applies: L5178Y, 30,000 cells per well, 72 h.
Excerpt: as §1
Parent L5178 cells were seeded at 10,000 cells per well in 96-well plates and then incubated for 72 hours in the absence or presence of CCcompound104 (1 or 5 μg/ml) and various concentrations of CCcompound26 as indicated in Table 5.
as §2

The subject of a further data set is CLL cells. The data set can be described thus: cells. To be noted: Homo sapiens, CLL cell; for cytotoxicity at 5 µM: 72 h, CCcompound3 5 μM, alone or combined. How it is done: Heparinized peripheral-blood samples were obtained from chronic lymphocytic leukemia patients with more than 70% malignant cells after informed consent, in accordance with the Declaration of Helsinki. The blood samples (10-ml) were diluted 1:1 with cold phosphate buffered saline (PBS; 0.135 M NaCl, 2.7 mM KCl, 1.5 mM KH2PO4, 8 mM Na2HPO4 [pH 7.4]) and layered onto Ficoll-Hypaque (8-ml, specific gravity, 1.086; Life Technologies, Grand Island, N.Y.). Then, the blood was centrifuged at 433 g for 20 min, and mononuclear cells were removed from the interphase. Cells were washed twice with cold PBS and after each centrifugation step the pelleted cells were resuspended in 10-ml RPMI 1640 supplemented with 10% fetal bovine serum (inactivated for 30 min at 56° C.). A Coulter channelyzer (Coulter Electronics, Hialeah, Fla.) was used to determine the cell number. Then the number of cells was adjusted to 1×10^7 cells per 1 ml before using them for the experiments.
as §1

Another data set is described as follows: in vitro. To be noted: human.
Excerpt: as §1
Peripheral lymphocytes are known to be very sensitive to chemotherapy and this sensitivity often limits the dose of chemotherapy that can be employed. In this series of experiments, the combined effects of CCcompound104 alone or in combination with CCcompound26 or CCcompound3 were determined on the viability of peripheral lymphocytes to establish doses that reduce cell viability less than 50%. As in previous experiments, the treatments were performed for 72 hours.

In a further data set the test system is MCF-7/ADR cells. The data set can be described thus: MTT cell viability, MCF-7/ADR cells. It is filed as cell-based, human. To be noted: 72 h, CCcompound104 5 μg/ml, EA 60 μM, CCcompound26/CCcompound3/CCcompound19 50 μM, alone or combined. How it is done: MCF/ADR cells were selected by incubating the parent MCF-7 with toxic concentrations (up to 10 μM) of adriamycin (doxorubicin). The selected drug resistant cells express both MDR1 and MRP1 among other molecular alterations as reviewed earlier [Kiss, Z., Tomono, M. and Anderson, W. B. (1994), “Phorbol ester selectively stimulates the phospholipase D-mediated hydrolysis of phosphatidylethanolamine in multidrug-resistant MCF-7 human breast carcinoma cells,” Biochem. J., 302, 649-654]. […] Ethacrynic acid (EA) alone, used at 60 μM concentration, decreased cell viability by about 24%, while CCcompound104 and EA in combination had 70% inhibitory effects (Table 7). In this cell line CCcompound104 and EA decreased cell viability synergistically.

In data set [3] the test system is lymphoma cells derived from non-Hodgkin patients. The data set can be described thus: MTT cell viability, lymphoma cells from non-Hodgkin patients. The class given is cell-based. The following applies: Homo sapiens, 72 h, CCcompound104 5 μg/ml, CCcompound26 1 μM, read-out: Inhibition (%) of viability. The method, then: Lymphoma cells derived from two non-Hodgkin lymphoma patients were treated with EA (15 μM) in the absence or presence of CCcompound104 (5 μg/ml)+CCcompound26 (1 μM) for 72 hours. […] However, the 3 agents together decreased the number of viable cells by 91 and 97%, respectively (Table 13).

A further data set concerns MCF-7 cells. The data set can be described thus: Cell viability, MCF-7 cells. To be noted: Homo sapiens, MCF7, 72 h, read-out: decrease of cell viability. It is filed as cell-based. How it is done:
The MCF-7 cells were isolated from a human mammary tumor. After combined treatments with 5 μg/ml of CCcompound104 and 1 μM of CCcompound26 for 72 hours, the viability of these cells was decreased by 42%. EA (30 μM) alone decreased cell viability by 32%, while the 3 agents together decreased cell viability about 100% (i.e. practically no viable cells remained after the treatments).

Like-named read-outs stand apart in the source and are kept apart here.

With `COc1cccc2c1C(=O)c1c(O)c3c(c(O)c1C2=O)C[C@@](O)(C(=O)CO)C[C@@H]3O[C@H]1C[C@H](N)[C@@H](O)[C@H](C)O1` [Epirubicin, epirubicin, reference compound], the “Inhibition (%) of viability” value in data set [1] (0.156 µg/ml) was found to be 0%; in data set [1] (0.312 μg/ml) it was 0%; in data set [1] (0.625 μg/ml) it was 0%; in data set [1] (1.25 μg/ml) it was 0%; in data set [1] (2.5 μg/ml), 12.2%; in data set [1] (5 μg/ml) it was 32.4%. Also, the “Inhibition (%) of viability” value in data set [2] (Epirubicin 0.156 μg/ml without or with CC104 5 μg/ml) was determined as 6.1%; in data set [2] (Epirubicin 0.312 μg/ml without or with CC104 5 μg/ml), 41.5%; in data set [2] (Epirubicin 0.625 μg/ml without or with CC104 5 μg/ml) it was 98.6%; in data set [2] (Epirubicin 1.250 μg/ml without or with CC104 5 μg/ml) it was 100%; in data set [2] (Epirubicin 2.500 μg/ml without or with CC104 5 μg/ml) it was 100%; in data set [2] (Epirubicin 5.000 μg/ml without or with CC104 5 μg/ml), 100%.

`CC[N+](C)(CC)CCOCc1ccc2sc3ccccc3c(=O)c2c1` [CCcompound3]: the cytotoxicity at 5 µM amounted to 7.8% in the data set with CLL cells (read-out: Inhibition (%) of viability, CLL patient 8, CCcompound104 5 μg/ml); 11.1% in the data set with CLL cells (read-out: Inhibition (%) of viability, CLL patient 9, CCcompound104 5 μg/ml); 32% with CLL cells (read-out: Inhibition (%) of viability, CLL patient 10, CCcompound104 5 μg/ml); 33.3% in the data set on CLL cells (read-out: Inhibition (%) of viability, CLL patient 11, CCcompound104 5 μg/ml); 26% in the data set with CLL cells (read-out: Inhibition (%) of viability, CLL patient 12, CCcompound104 5 μg/ml); 12.5% in the data set with CLL cells (read-out: Inhibition (%) of viability, CLL patient 13, CCcompound104 5 μg/ml). In addition, the cytotoxicity at 5 µM in the data set on CLL cells (read-out: Inhibition (%) of viability, CLL patient 14, CCcompound104 5 μg/ml) is 36.3%; in the data set on CLL cells (read-out: Inhibition (%) of viability, CLL patient 15, CCcompound104 5 μg/ml), 3.3%; in the data set with CLL cells (read-out: Inhibition (%) of viability, CLL patient 16, CCcompound104 5 μg/ml) it was 50.1%; in the data set on CLL cells (read-out: Inhibition (%) of viability, CLL patient 17, CCcompound104 5 μg/ml) it was 0%; in the data set on CLL cells (read-out: Inhibition (%) of viability, CLL patient 18, CCcompound104 5 μg/ml) it was 6%; with CLL cells (read-out: Inhibition (%) of viability, CLL patient 19, CCcompound104 5 μg/ml), 9.2%. In addition, the cytotoxicity at 5 µM with CLL cells (read-out: Inhibition (%) of viability, CLL patient 20, CCcompound104 5 μg/ml) came out at 0%. The cytotoxicity at 72 h, 1 μM in “in vitro” (Inhibition (%) of viability) amounted to 0%. For the same molecule, the cytotoxicity at 72 h, 50 μM in the data set “in vitro” (decrease of viability of healthy lymphocytes) turned out to be 6%. Further, in the data set on MCF-7/ADR cells, the “Inhibition (%) of viability” value was determined as 20.0%.

As to `C=C(CC)C(=O)c1ccc(OCC(=O)O)c(Cl)c1Cl` [EA, ethacrynic acid], the cytotoxicity at 30 µM in the data set with CLL cells (read-out: Inhibition (%) of viability, resistant CLL cells, patient 17, EA 30 μM, CCcompound104 5 μg/ml, CCcompound26 1 μM) was 31.8%; in the data set on CLL cells (read-out: Inhibition (%) of viability, resistant CLL cells, patient 18, EA 30 μM, CCcompound104 5 μg/ml, CCcompound26 1 μM) it was 38.3%; in the data set with CLL cells (read-out: decrease of viability of resistant CLL cells, over patients 17 and 18, EA 30 μM, CCcompound104 5 μg/ml, CCcompound26 1 μM) it was 31 to 38%; with MCF-7 cells, 32%. For the same molecule, the cytotoxicity at 15 µM came out at 36.8% in data set [3] (non-Hodgkin patient 1, EA 15 μM); 42.4% in data set [3] (non-Hodgkin patient 2, EA 15 μM); 48.2% in data set [3] (non-Hodgkin patient 3, EA 15 μM); 53.1% in data set [3] (non-Hodgkin patient 4, EA 15 μM). In addition, the cytotoxicity at 60 µM with MCF-7/ADR cells (Homo sapiens, NCI/ADR-RES, read-out: Inhibition (%) of viability) was about 24%.

For `C[N+](C)(C)CCC=C1c2ccccc2Sc2ccccc21.[I-]` [CCcompound19, N,N,N-trimethyl-3-(9H-thioxanthen-9-ylidene)-propan-1-aminium iodide], in the data set on MCF-7/ADR cells, the “Inhibition (%) of viability” value stood at 20.2%.
